# Measurements: patent publication US7598067B2, “PDEs and uses thereof” (priority 2000, dated 2009)
# Several values for one entry are separate records, joined by “and”; a condition that tells them apart may be missing. Equal values may be shown once. Read-outs that look alike come from different tables or passages of the source.
# How the values were obtained:
# TbPDE2A [1] = target: T1, TbPDE2A (Trypanosoma brucei, UniProt Q9GTN9); assay: Phosphodiesterase assay, recombinant TbPDE2A in yeast lysates; assay type: biochemical; conditions: for effect on TbPDE2A activity in initial screening: 100 μM inhibitor, FIG. 26; for effect on TbPDE2A activity in initial screening / IC50 / IC50 for TbPDE2A (μM): 1 μM cAMP; for IC50 / IC50 for TbPDE2A (μM): full-size TbPDE2A, yeast lysates
# Procedure: Yeast cell lysis. Yeast cells grown to mid- to end-log phase in SC-leu medium were collected, resuspended quickly in an original volume of prewarmed YPD medium and incubated for an additional 3 h at 30° C. in order to maximize protein expression. Cells were then harvested, washed once in water and once in HBBB buffer (Hank's balanced salt solution, containing 50 mM HEPES, pH 7.5). The washed cell pellet was suspended in an equal volume of HBB containing a protease inhibitor cocktail (Complete™, Roche Molecular Biochemicals). […] The cell lysate was clarified by centrifugation for 15 min at 15,000×g.
# Phosphodiesterase Assay. […] […] Incubation was at 30° C. for 20 min. […] The precipitates were filtered through GF-C glass fiber fitters and filters were washed 3 times with ice-cold 1 mM NaOH/100 mM NaCl and were then dried and counted in liquid scintillation fluid (4 g/I omnifluor in toluene). All assays were carried out in triplicates and with three independent enzyme preparations. Controls for the efficiency of precipitation of cAMP and of AMP were always included. When assaying yeast cell extracts, control lysates from the PDE deletion strains transfected with empty vector was used as a background control. […] Inhibitors were dissolved in DMSO or ethanol, and the final concentration of the solvent never exceeded 1% in the assays reaction. Incubation times and enzyme concentrations were always adjusted so that less than 30% of the input substrate was hydrolyzed (2-5 μg total protein/100 μl assay). IC50 values were calculated by curve fitting on a four parameter dose-response model with variable slope, using the Prism software package of Graph Pad Inc., San Diego, Calif.
# TbPDE2B = TbPDE2B (Trypanosoma brucei, UniProt Q9GQU6); assay: Phosphodiesterase assay, recombinant TbPDE2B expressed in HEK 293 cells; assay type: biochemical; conditions: for inhibition of recombinant TbPDE2B, in words: 1 μM [3H] cAMP, cGMP up to 200 μM
# Procedure: Expression of T. brucei PDE. The ORF sequence for T. brucei PDE was subcloned into the pcDNA 3.1-TOPO vector (Invitrogen) according to the manual (Eukaryotic TOPO TA Cloning, version C) and plasmid DNA purified as described above. Human embryonic kidney 293 (HEK 293) cells were transfected with 12 μg of DNA in 60 μl of GenePORTER Transfection Reagent (Gene Therapy Systems, San Diego, Calif.) in 100-mm dishes and kept at 37° C. in 5% CO2 for 24 h. After this period fresh medium was added, and incubated under the same conditions for an additional 24 h. The same amount of pcDNA vector containing the sequence for the Green Fluorescent Protein (GFP) was transfected under identical conditions as a positive control for expression and as a negative control for PDE activity. Two plates were harvested at a time and homogenized with 1 ml of homogenization buffer containing 40 mM Tris-HCl, pH 7.5; 15 mM benzamidine; 15 mM 2-mercaptoethanol; 1 μg/ml pepstatin A; 1 μg/ml leupeptin and 5 mM EDTA. The cell suspension was immediately subjected to sonication (3×5 s) on ice. One volume of glycerol and 1 mg/ml of bovine serum albumin were added immediately to the homogenate.
# Phosphodiesterase assay. […]
# [2] = system: total PDE activity of trypanosomal cell extracts; assay: Total PDE activity in trypanosomal cell extracts; assay type: biochemical, Trypanosoma brucei
# Source text: Chemical validation of the TbPDE2 family as a potential drug target. One of the novel PDEs of the invention, TbPDE2A, was expressed as a recombinant protein and was characterized in detail (see above). […].
# PDE7A = assay: RT-PCR of PDE7A upregulation in CD3/CD28-stimulated CD4+ T cells; assay type: cell-based, human; conditions: 1 hour after stimulation; FIG. 2C
# PDE8A = assay: RT-PCR of PDE8A upregulation in CD3/CD28-stimulated CD4+ T cells; assay type: cell-based, human; conditions: after CD3 and CD28 stimulation; FIG. 2C, 2D
# Procedure: Peripheral blood mononuclear cells were isolated from one human buffy coat (50 mL) by centrifugation through a layer of Ficoll-Paque Plus (2000 rpm, 30 min). Cells from the interface were removed and further purified by negative selection. CD4^+ T cells were usually isolated using a mixture of monoclonal antibodies (CD8, CD16, CD20, CD25 and HLADr) and goat anti-mouse IgG conjugated to magnetic beads according to the manufacturers protocol (Dynal, Lake Success, N.Y.). In some cases the CD4^+ T cell isolation kit was used in combination with the CD69 microbead kit (to remove activated cells). The labeled cells were removed by passage through a CS column (Miltenyi Biotec, Auburn, Calif.) placed in a magnetic field. The CD4^+ T cells passing through the column (at least 98% pure as determined by FACS analysis) were resuspended in RPMI/10% FBS/pen/strep/glutamine medium. The cells were stimulated as follows. Plates (Corning, Acton, Mass.) were precoated with goat anti-mouse IgG (10 μg/mL) for 2 hours at 37° C. and then washed with PBS. Cells were added to the plate together with CD3 (0.01 μg/mL) and CD28 (0.1 ug/mL) monoclonal antibodies and were harvested at various time points. The presence of PDE8A protein and RNA in activated CD4^+ T cells was detected by Western blotting and RT-PCR (see example 3). […]
# PDEs (Non-selective) = conditions: read-out: PDE Selectivity (IC50); cited from earlier work
# TbPDE2A [3] = target: T1, TbPDE2A; conditions: Table 2, from reference; cited from earlier work
# PDE 4 = conditions: read-out: PDE Selectivity (IC50); cited from earlier work
# [4] = system: endogenous PDE activity from the HEK 293 cells; assay: Endogenous PDE activity from HEK 293 cells; assay type: biochemical, human; conditions: lowest concentration used (10 μM)
# Source text: Phosphodiesterase assay. […] […]
# [5] = system: PDE8A and PDE7A from hut78 cells; assay: PDE activity of monoQ HPLC fractions of hut78 cells, low Km peak; assay type: biochemical, human; conditions: 0.01 μM cAMP; 10 μM rolipram or 100 μM IBMX
# Procedure: Since pure CD4^+ T cells can only be obtained in limited quantities, a human CD4^+ T cell line, hut78, (ATCC, Manassas, Va.), was used to study the activity of PDE8A. Hut78 cells (2×10^8) were resuspended in 20 mM Tris pH 7.5 buffer containing protease inhibitors (Boehringer Mannheim, Indianapolis, Ind.) and sonicated. The supernatant was removed after centrifugation at 15000×g for 10 minutes and applied to a Mono Q column attached to a Rainin Dynamax HPLC system (Ameryville, Calif.). A NaCl gradient (0-0.8M) was passed through the column and 250 uL fractions were collected. The fractions were assayed for activity using either 1 μM or 0.01 μM cAMP as substrate and the indicated concentration of inhibitor (FIG. 5). Western blot analysis was also performed (10 μL/well) using PDE7A or 8A antibodies.
# PDE 6 = conditions: read-out: PDE Selectivity (IC50); cited from earlier work
# Chain of TbPDE2B (Q9GQU6 entry or part of it): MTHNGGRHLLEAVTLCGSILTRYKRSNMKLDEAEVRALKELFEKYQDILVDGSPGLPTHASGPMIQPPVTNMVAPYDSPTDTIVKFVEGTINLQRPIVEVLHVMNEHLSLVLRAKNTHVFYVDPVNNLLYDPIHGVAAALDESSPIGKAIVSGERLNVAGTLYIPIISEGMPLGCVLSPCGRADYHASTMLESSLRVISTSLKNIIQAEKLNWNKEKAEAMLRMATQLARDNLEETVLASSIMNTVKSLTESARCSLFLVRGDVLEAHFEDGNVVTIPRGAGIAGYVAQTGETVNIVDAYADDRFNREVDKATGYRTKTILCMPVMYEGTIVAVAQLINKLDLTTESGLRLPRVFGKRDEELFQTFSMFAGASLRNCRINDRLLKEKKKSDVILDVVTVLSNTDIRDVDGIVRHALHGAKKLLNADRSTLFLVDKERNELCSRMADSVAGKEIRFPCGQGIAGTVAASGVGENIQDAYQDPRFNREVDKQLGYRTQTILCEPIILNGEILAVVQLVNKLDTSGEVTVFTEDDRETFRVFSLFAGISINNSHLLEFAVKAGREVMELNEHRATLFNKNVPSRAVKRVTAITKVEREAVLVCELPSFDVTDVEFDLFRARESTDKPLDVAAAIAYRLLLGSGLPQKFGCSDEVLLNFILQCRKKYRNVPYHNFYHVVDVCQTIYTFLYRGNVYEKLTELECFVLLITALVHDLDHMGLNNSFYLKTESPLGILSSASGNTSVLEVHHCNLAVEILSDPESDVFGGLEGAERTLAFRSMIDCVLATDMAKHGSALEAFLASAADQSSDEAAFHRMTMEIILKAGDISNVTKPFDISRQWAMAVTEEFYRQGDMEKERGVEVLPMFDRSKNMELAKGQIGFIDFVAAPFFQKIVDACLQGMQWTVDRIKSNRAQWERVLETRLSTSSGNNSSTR
# T1 sequence (Q9GTN9 entry or part of it): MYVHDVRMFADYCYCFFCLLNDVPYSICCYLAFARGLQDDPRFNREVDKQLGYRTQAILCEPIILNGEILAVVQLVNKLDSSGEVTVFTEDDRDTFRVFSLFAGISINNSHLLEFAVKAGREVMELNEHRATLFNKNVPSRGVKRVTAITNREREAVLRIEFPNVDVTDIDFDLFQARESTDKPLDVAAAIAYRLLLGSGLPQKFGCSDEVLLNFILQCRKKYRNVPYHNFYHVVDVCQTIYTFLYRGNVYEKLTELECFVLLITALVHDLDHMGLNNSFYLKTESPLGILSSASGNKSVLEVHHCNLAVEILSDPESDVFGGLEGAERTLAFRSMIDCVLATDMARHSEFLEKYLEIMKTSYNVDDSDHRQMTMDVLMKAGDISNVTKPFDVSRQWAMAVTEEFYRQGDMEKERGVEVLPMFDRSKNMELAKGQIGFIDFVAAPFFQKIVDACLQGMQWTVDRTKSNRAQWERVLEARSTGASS
Compound,effect on TbPDE2A activity in initial screening (TbPDE2A [1]),IC50 (TbPDE2A [1]),IC50 (TbPDE2B) [µM],"inhibition of recombinant TbPDE2B, in words (TbPDE2B)",other results
COCc1nc2c([nH]1)c(=O)n(C)c(=O)n2CC(C)C [8-methoxymethyl-IBMX],only very little effect,–,–,–,–
"CN(C(=O)CCCOc1ccc2[nH]c(=O)ccc2c1)C1CCCCC1 [Cilostamide, cilostamide]",only very little effect,> 100 µM,–,–,–
"CCCCCCC(C(C)O)n1cnc2c(N)ncnc21 (stereo not drawn) [EHNA, erythro-9-[3-(2-hydroxynonyl)]-adenine]",–,–,> 180,No IC50 could be obtained,–
"CCOC(=O)c1cnc2c(cnn2CC)c1NN=C(C)C [Etazolate, etazolate]",–,30.3 µM,127,–,–
CCOc1ccc(Cc2nccc3cc(OCC)c(OCC)cc23)cc1OCC [Ethaverine],significantly more effective as an inhibitor of TbPDE2A than its parent compound papaverine,14 µM and 14.2 µM,–,–,"total PDE activity [2]: marked, if not complete, reduction; IC50 for TbPDE2A (μM) (TbPDE2A [1]): low micromolar range"
CC(C)(C)n1nc(-c2ccc(Cl)cc2)c2c(N)ncnc21 [PP2],–,–,–,–,PDE7A upregulation (PDE7A): reduction of PDE7A upregulation; PDE8A upregulation (PDE8A): greatly reduced
"COc1ccc(Cc2nccc3cc(OC)c(OC)cc23)cc1OC [Papaverine, papaverine]",–,–,304 ± 19,extremely low sensitivity,"IC50 (PDEs (Non-selective)): 5 to 25 µM; effectiveness on TbPDE2A, in words (TbPDE2A [1]): only marginal activity"
"CC(=O)CCCCn1c(=O)c2c(ncn2C)n(C)c1=O [Pentoxifylline, pentoxifylline]",–,–,> 800,extremely low sensitivity,IC50 (PDEs (Non-selective)): 45 to 150 µM
"COc1ccc(C2CNC(=O)C2)cc1OC1CCCC1 (stereo not drawn) [Rolipram, rolipram]",no appreciable activity,> 100 µM,> 300,No inhibition,IC50 (TbPDE2A [3]): > 100 µM; IC50 (PDE 4): […]; endogenous PDE activity from the HEK 293 cells [4]: completely abolished; sensitivity of the PDE activity peak [5]: resistant
"CCCc1nn(C)c2c(=O)[nH]c(-c3cc(S(=O)(=O)N4CCN(C)CC4)ccc3OCC)nc12 [Sildenafil, sildenafil]",–,9.4 µM,> 100,No IC50 could be obtained,"total PDE activity [2]: marked, if not complete, reduction; IC50 for TbPDE2A (μM) (TbPDE2A [1]): low micromolar range"
"Cn1c(=O)c2[nH]cnc2n(C)c1=O [Theophylline, theophylline]",–,> 100 µM,–,–,"effectiveness on TbPDE2A, in words (TbPDE2A [1]): not effective"
COc1cc2c(cc1OC)-c1c/c(=N\c3c(C)cc(C)cc3C)n(C)c(=O)n1CC2 [Trequinsin],–,5.4 µM,–,–,"total PDE activity [2]: marked, if not complete, reduction; IC50 for TbPDE2A (μM) (TbPDE2A [1]): low micromolar range"
"CCOC(=O)C1=C[C@]2(CC)CCCN3CCc4c(n1c1ccccc41)[C@@H]32 [Vinpocetine, vinpocetine]",only very little effect,> 100 µM,–,–,–
"CCCOc1ccccc1-c1nc2nn[nH]c2c(=O)[nH]1 [Zaprinast, zaprinast]",only very little effect,42.4 µM,> 50,No IC50 could be obtained,IC50 (TbPDE2A [3]): 42.5 µM; IC50 (PDE 6): 0.15 µM
Cc1[nH]c(=O)c(C#N)cc1-c1ccncc1 [milrinone],only very little effect,–,–,–,–
Ro 20-1724,–,–,–,No inhibition,"IC50 (PDE 4): 2 µM; endogenous PDE activity from the HEK 293 cells [4]: completely abolished; IC50 (TbPDE2B; Substrate concentration 1 μM [3H]-cAMP, read-out: TbPDE2B IC50 (μM) (n = 3)): > 300 µM"
